ChEMBL document CHEMBL5032530, “Discovery of Benzocyclic Sulfone Derivatives as Potent CXCR2 Antagonists for Cancer Immunotherapy” (J Med Chem, 2021)
pIC50, pKi: −log10 of the molar value. Values belong to the compound of their own block, whether it stands above or below them. The source made the active and inactive calls. The calls are words filed in the database; no cut-off is given here.

Legend:
[1] = biological target: T1, C-X-C chemokine receptor type 2 (Homo sapiens, UniProt P25025); experiment: Antagonist activity at human CXCR2 expressed in HEK293 cells assessed as inhibition of CXCL8-induced beta-arrestin recruitment preincubated for 30 mins followed by addition of agonist incubated for 90 mins by beta arrestin assay; type: functional, cell-based
T1 sequence (P25025 whole entry): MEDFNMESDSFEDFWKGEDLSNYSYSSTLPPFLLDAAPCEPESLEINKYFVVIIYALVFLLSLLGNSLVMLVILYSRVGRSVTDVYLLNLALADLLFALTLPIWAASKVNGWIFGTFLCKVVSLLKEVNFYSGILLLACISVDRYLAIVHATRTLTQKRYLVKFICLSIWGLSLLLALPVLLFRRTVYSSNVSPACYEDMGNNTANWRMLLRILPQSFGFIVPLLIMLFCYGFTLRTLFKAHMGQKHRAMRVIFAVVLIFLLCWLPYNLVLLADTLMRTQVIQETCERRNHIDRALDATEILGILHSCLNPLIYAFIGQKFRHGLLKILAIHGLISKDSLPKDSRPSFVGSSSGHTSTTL

[2] = AUC (0 to infinity) in ICR mouse at 3 mg/kg, iv measured upto 48 hrs; type: ADME, organism-based; design: route intravenous, dose 3 mg/kg, time <=48; details: in vivo
[3] = biological target: T1, C-X-C chemokine receptor type 2; experiment: Displacement of [I-125]-interleukin-8 against human recombinant CXCR2 expressed in CHO-K1 cells incubated for 60 mins by radio ligand binding assay; type: cell-based
[4] = AUC (0 to infinity) in ICR mouse at 30 mg/kg, po measured upto 48 hrs; type: ADME, organism-based; design: route oral, dose 30 mg/kg, time <=48; details: ICR, in vivo
[5] = Oral bioavailability in ICR mouse at 30 mg/kg measured upto 48 hrs; type: ADME, organism-based; details: in vivo
[6] = Cmax in ICR mouse at 30 mg/kg, po measured upto 48 hrs; type: ADME, organism-based; design: route oral, dose 30 mg/kg, time <=48; details: in vivo
Mus musculus = experiment: Effect on granulocytic MDSCs level in mouse xenografted with […] cells at 10 to 30 mg/kg, po bid measured after 15 days by immunohistochemical analysis; type: ADME, organism-based; details: in vivo, 360 h, dose 10-30 mg/kg, time 15 day
SW1990 = experiment: Cytotoxicity against human SW1990 cells assessed as reduction in cell viability measured after 72 hrs by CCK8 assay; type: cell-based; details: SW1990, 72 h
[7] = Cytotoxicity against human PBMC cells assessed as reduction in cell viability measured after 72 hrs by CCK8 assay; type: cell-based
Panc02 [8] = experiment: Antitumour activity against mouse Panc02 cells xenografted in mouse assessed as change in CD45 expressing immune cells infiltration into tumor tissue at 3 mg/kg, po bid measured after 15 days by flow cytometry analysis (reference value: 2.3%); type: functional; details: time 15 day
[9] = Half life in ICR mouse at 3 mg/kg, iv measured upto 48 hrs; type: ADME, organism-based; details: in vivo
Panc02 [10] = experiment: Antitumour activity against mouse Panc02 cells xenografted in mouse assessed as change in CD11b expressing immune cells infiltration into tumor tissue using LY6G antibody at 3 mg/kg, po bid measured after 15 days by flow cytometry analysis (reference value: 29.7%); type: functional; details: time 15 day
Panc02 [11] = experiment: Antitumour activity against mouse Panc02 cells xenografted in mouse assessed as reduction in infiltration of neutrophils into tumor tissue at 30 mg/kg, po bid measured after 15 days by immunohistochemical analysis; type: functional, organism-based; details: time 15.0 day
Panc02 [12] = experiment: Antitumour activity against mouse Panc02 cells xenografted in mouse assessed as change in Gr1 expressing immune cells infiltration into tumor tissue at 10 mg/kg, po bid measured after 15 days by flow cytometry analysis (reference value: 27.4%); type: functional; details: time 15 day
[13] = Clearance in ICR mouse at 3 mg/kg, iv measured upto 48 hrs; type: ADME, organism-based; details: in vivo
Panc02 [14] = experiment: Antitumour activity against mouse Panc02 cells xenografted in mouse assessed as reduction in infiltration of neutrophils into tumor tissue at 3 mg/kg, po bid measured after 15 days by flow cytometry analysis; type: functional, organism-based; details: time 15.0 day
Panc02 [15] = experiment: Antitumour activity against mouse Panc02 cells xenografted in mouse assessed as reduction in infiltration of granulocytic MDSCs into tumor tissue at 3 mg/kg, po bid measured after 15 days by flow cytometry analysis; type: functional, organism-based; details: time 15.0 day
[16] = Cmax in ICR mouse at 3 mg/kg, iv measured upto 48 hrs; type: ADME, organism-based; design: route intravenous, dose 3 mg/kg, time <=48; details: in vivo
Panc02 [17] = experiment: Antitumour activity against mouse Panc02 cells xenografted in mouse assessed as change in CD45 expressing immune cells infiltration into tumor tissue at 3 mg/kg, po bid measured after 15 days by flow cytometry analysis (reference value: 27.4%); type: functional; details: time 15 day
[18] = Apparent volume of distribution in ICR mouse at 30 mg/kg, po measured upto 48 hrs; type: ADME, organism-based; details: in vivo
Panc02 [19] = experiment: Antitumour activity against mouse Panc02 cells xenografted in mouse assessed as change in CD11b expressing immune cells infiltration into tumor tissue using LY6C antibody at 10 mg/kg, po bid measured after 15 days by flow cytometry analysis (reference value: 20.5%); type: functional; details: time 15 day
Neutrophil = experiment: In vivo antagonist activity at CXCR2 in carrageenan-induced C57BL/6 mouse air pouch inflammation model assessed as reduction in neutrophil infiltration into air pouch at 30 mg/kg, po bid administered after 3 days of carrageenan treatment for 3 days; type: functional, organism-based; details: time 3.0 day
[20] = Half life in ICR mouse at 30 mg/kg, po measured upto 48 hrs; type: ADME, organism-based; details: ICR, in vivo
Panc02 [21] = experiment: Antitumour activity against mouse Panc02 cells xenografted in mouse assessed as tumour growth inhibition at 3 mg/kg, po bid […]; type: functional; details: read-out: TGI
Panc02 [22] = experiment: Antitumour activity against mouse Panc02 cells xenografted in mouse assessed as upregulation of infiltration of CD3+ T cell into tumor tissue treated po twice a day measured after 15 days by immunohistochemical analysis; type: functional, organism-based; details: dose 10-30 mg/kg, time 15.0 day
PANC-1 = experiment: Cytotoxicity against human PanC-1 cells assessed as reduction in cell viability measured after 72 hrs by CCK8 assay; type: cell-based; details: PANC-1, 72 h
Panc02 [23] = experiment: Antitumour activity against mouse Panc02 cells xenografted in mouse assessed as change in CD11b expressing immune cells infiltration into tumor tissue using LY6G antibody at 10 mg/kg, po bid measured after 15 days by flow cytometry analysis (reference value: 29.7%); type: functional; details: time 15 day
Panc02 [24] = experiment: Antitumour activity against mouse Panc02 cells xenografted in mouse assessed as tumour growth inhibition at 10 mg/kg, po bid […]; type: functional; details: read-out: TGI
[25] = AUC (0 to t) in ICR mouse at 3 mg/kg, iv measured upto 48 hrs; type: ADME, organism-based; design: route intravenous, dose 3 mg/kg, time <=48; details: in vivo
Panc02 [26] = experiment: Antitumour activity against mouse Panc02 cells xenografted in mouse assessed as reduction in infiltration of granulocytic MDSCs into tumor tissue at 30 mg/kg, po bid measured after 15 days by immunohistochemical analysis; type: functional, organism-based; details: time 15.0 day
[27] = Clearance in ICR mouse at 30 mg/kg, po measured upto 48 hrs; type: ADME, organism-based; details: ICR, in vivo
[28] = Tmax in ICR mouse at 30 mg/kg, po measured upto 48 hrs; type: ADME, organism-based; details: in vivo
[29] = AUC (0 to t) in ICR mouse at 30 mg/kg, po measured upto 48 hrs; type: ADME, organism-based; design: route oral, dose 30 mg/kg, time <=48; details: in vivo
MIA PaCa-2 = experiment: Cytotoxicity against human MIA PaCa-2 cells assessed as reduction in cell viability measured after 72 hrs by CCK8 assay; type: cell-based; details: MIA PaCa-2, 72 h
Panc02 [30] = experiment: Antitumour activity against mouse Panc02 cells xenografted in mouse assessed as change in CD11b expressing immune cells infiltration into tumor tissue using LY6C antibody at 3 mg/kg, po bid measured after 15 days by flow cytometry analysis (reference value: 20.5%); type: functional; details: time 15 day
[31] = Apparent volume of distribution in ICR mouse at 3 mg/kg, iv measured upto 48 hrs; type: ADME, organism-based; details: in vivo, read-out: Vz
[32] = Tmax in ICR mouse at 3 mg/kg, iv measured upto 48 hrs; type: ADME, organism-based; details: in vivo
Panc02 [33] = experiment: Cytotoxicity against mouse Panc02 cells assessed as reduction in cell viability measured after 72 hrs by CCK8 assay; type: cell-based; details: panc02, 72 h
BXPC-3 = experiment: Cytotoxicity against human BxPC3 cells assessed as reduction in cell viability measured after 72 hrs by CCK8 assay; type: cell-based; details: BXPC-3, 72 h
Panc02 [34] = experiment: Antitumour activity against mouse Panc02 cells xenografted in mouse assessed as change in CD45 expressing immune cells infiltration into tumor tissue at 10 mg/kg, po bid measured after 15 days by flow cytometry analysis (reference value: 2.3%); type: functional; details: time 15 day

- pIC50 [1]: 5.98
SMILES: O=c1c(Nc2ccccc2Cl)c(Nc2ccc3c(c2O)S(=O)(=O)CCC3)c1=O

- pIC50 [1]: 5.87
SMILES: Cc1c(F)cccc1Nc1c(Nc2ccc3c(c2O)S(=O)(=O)CCC3)c(=O)c1=O

- pIC50 [1]: 5.83
SMILES: O=C(Nc1ccc(Br)cc1)Nc1ccc2c(c1O)S(=O)(=O)CC=C2

- pIC50 [1]: 6.89
SMILES: O=C(Nc1ccc2c(c1O)S(=O)(=O)CC=C2)Nc1cccc(Cl)c1Cl

- pIC50 [1]: 6.38
SMILES: Cc1c(F)cccc1NC(=O)Nc1ccc2c(c1O)S(=O)(=O)CCC2=O

- pIC50 [1]: 5.60
SMILES: O=c1c(Nc2ccc3c(c2O)S(=O)(=O)CC=C3)c(Nc2cccc(Cl)c2Cl)c1=O

- pIC50 [1]: 5.79
SMILES: Cc1c(Cl)cccc1NC(=O)Nc1ccc2c(c1O)S(=O)(=O)CC=C2

The next lines start with the compound.

SMILES: Cc1c(F)cccc1Nc1c(Nc2ccc3c(c2O)S(=O)(=O)CC=C3)c(=O)c1=O
- pIC50 [1]: 6.43

SMILES: O=C(Nc1ccccc1Cl)Nc1ccc2c(c1O)S(=O)(=O)CC=C2
- pIC50 [1]: 7.18

SMILES: O=C(Nc1ccc2c(c1O)S(=O)(=O)CCC2=O)Nc1cccc(Cl)c1Cl
- pIC50 [1]: 6.40

SMILES: Cc1c(F)cccc1NC(=O)Nc1ccc2c(c1O)S(=O)(=O)CC=C2
- AUC(0-inf) [2]: 1550 ng·h/mL
- pKi [3]: 6.36
- AUC(0-inf) [4]: 3570 ng·h/mL
- bioavailability [5]: 23.2%
- Cmax [6]: 419 ng/mL
- Activity (Mus musculus): Non-Toxic
- pIC50 (SW1990): < 5.00
- pIC50 [7]: < 5.00
- Activity (Panc02 [8]): 34.9%
- half-life [9]: 3.39 h
- Activity (Panc02 [10]): 15.8%
- Activity (Panc02 [11]): Active
- Activity (Panc02 [12]): 7.6%
- clearance [13]: 32.8 mL/min/kg
- Activity (Panc02 [14]): Active
- Activity (Panc02 [15]): Active
- Cmax [16]: 5120 ng/mL
- Activity (Panc02 [17]): 12.7%
- Vz [18]: 47.39 L/kg
- Activity (Panc02 [19]): 17.8%
- Activity (Neutrophil): Active
- half-life [20]: 3.83 h
- inhibition in vivo at 3 mg/kg (Panc02 [21]): 58.2%
- Activity (Panc02 [22]): Dose-Dependent Effect
- pIC50 (PANC-1): < 5.00
- pIC50 [1]: 7.47
- Activity (Panc02 [23]): 8.11%
- inhibition in vivo at 10 mg/kg (Panc02 [24]): 66.7%
- AUC(0-t) at 48 h [25]: 1510 ng·h/mL
- Activity (Panc02 [26]): Active
- CL/F [27]: 143 mL/min/kg
- Tmax [28]: 3.42 h
- AUC(0-t) at 48 h [29]: 3510 ng·h/mL
- pIC50 (MIA PaCa-2): < 5.00
- Activity (Panc02 [30]): 15%
- Vd [31]: 9.82 L/kg
- Tmax [32]: 3 min
- Activity (Panc02 [33]): Non-Toxic
- pIC50 (BXPC-3): < 5.00
- Activity (Panc02 [34]): 40.2%

SMILES: O=C(Nc1ccccc1C(F)(F)F)Nc1ccc2c(c1O)S(=O)(=O)CCC2
- pIC50 [1]: 5.35

SMILES: O=c1c(Nc2ccc3c(c2O)S(=O)(=O)CC=C3)c(Nc2cccc(F)c2Cl)c1=O
- pIC50 [1]: 6.15

SMILES: Cc1ccc(NC(=O)Nc2ccc3c(c2O)S(=O)(=O)CCC3)cc1
- pIC50 [1]: 5.88

SMILES: Cc1c(Cl)cccc1NC(=O)Nc1ccc2c(c1O)S(=O)(=O)CCC2
- pIC50 [1]: 5.61

SMILES: O=C(Nc1ccc2c(c1O)S(=O)(=O)CCC2)Nc1cccc(F)c1Cl
- pIC50 [1]: 7.37

SMILES: O=C(Nc1ccccc1Br)Nc1ccc2c(c1O)S(=O)(=O)CC=C2
- pIC50 [1]: 7.31
